Results from US6583132B1, “Oxidant scavengers” (Duke University, priority 1993, dated 2003).

Tests used:
[1] = system: calf pulmonary artery endothelial cell cultures (CPA-47); assay: Paraquat-induced injury of CPA-47 cells, LDH release; type: cell-based; settings: varying concentrations; Paraquat 2 mM, 24 hours
Experimental: Calf pulmonary artery endothelial cell cultures (CPA-47) were grown to confluence in Ham's F-12K medium with 10% fetal bovine serum at pH 7.4 and 37° C. Cells were then trypsinized and seeded at equal densities in 24 well plates and grown to 90% confluence. Cells were washed and pre-incubated for 1 hour with varying concentrations of ZnTBAP in MEM or MEM only. Paraquat (2 mM) was added and allowed to incubate for 24 hours. Cell injury was quantitated by measuring the release of cellular lactate dehydrogenase (LDH) into the medium.

[2] = system: descending thoracic aorta rings; assay: NO-induced vascular relaxations of aortic rings; set-up: species or system New Zealand white rabbits; settings: 100 μM; NO 75-300 nM
Experimental: Measurement of NO-induced vascular relaxations: New Zealand white rabbits weighing 3-4 kg were anesthetized with pentobarbital (30 mg/kg). The descending thoracic aorta was isolated, removed, cleaned and placed in Krebs buffer (pH 7.5). Vessels were cut into 5 mm rings and hung on stirrups connected to force transducers. Rings were suspended in 20 ml jacketed baths which were kept at 37° C. and bubbled with 95% O2 and 5% CO2. Rings were equilibrated with 2 g resting tension for 1 h before use and contracted with phenylephrine. Saturated NO solution was prepared by bubbling compressed NO gas through a NaOH trap and then into anaerobic deionized water. Aliquots of the nitric oxide solutions (final concentration: 75-300 nM) were added to the rings (in the presence or absence of 100 μM MnTBAP) and relaxant responses were recorded.

rat cortical cells = assay: Neurotoxicity (LDH release) in cortical cell culture; type: cell-based
Experimental: Tissue culture: Mixed neuronal and glial cultures were prepared from embryonic day-18 rat cerebral cortices (Sprague-Dawley, Zivic Miller). Briefly, the cerebral cortices were dissected and enzymatically dissociated by incubation in Ca^++-, Mg^++-free Hank's balanced salt solution (HBSS) supplemented with 10 mM HEPES and 0.25% trypsin for 20 min. at 37° C. The tissue was rinsed and dispersed into single cell suspension by gentle passage through a fire polished Pasteur pipette. The cell suspension was centrifuged and resuspended in Minimum Essential Media (MEM), containing Earle's salts supplemented with 3 g/L glucose, 5% horse serum and 5% fetal bovine serum (growth media). The cells were plated in poly-D-lysine-coated multi-well plates: 12-well plates for aconitase measurement, and 24 well plates for toxicity experiments. Cells were maintained at 37° C. in a humidified incubator with 5% CO2/95% air in growth media. Media was not replaced so as to reduce glial overgrowth and neuronal loss. Mature cells (14-17 days in vitro) were used for all experiments.
Cell treatment: The growth media was replaced with MEM supplemented with 25 mM glucose (MEM-g). For both neurotoxicity studies and aconitase measurement, cells were incubated in the designated treatment for the indicated length of time at 37° C. Unless otherwise specified, antagonists or SOD-mimetics were added 15 min. prior to agonists. For measurement of neurotoxicity, cells were incubated with treatments for 18 hr at 37° C. in MEM-g. To access the ability of antagonists to inhibit acute NMDA toxicity or rescue cells from an ongoing NMDA insult, an alternate paradigm of NMDA treatment was used in addition to the one describe above. In this paradigm, growth media was replaced with HBSS^+ (Ca^++-, Mg^++-free Hank's Balanced Salt Solution supplemented with 2 mM CaCl2, 1 mM NaHCO3, 10 mM HEPES and 5 μM glycine), cells were treated with vehicle or 100 μM NMDA for 15 min. after which HBSS^+ was replaced with MEM-g and cells were returned to the incubator for 18 additional hrs. Antagonsists or SOD-mimetics were added to the cells 15 min. before NMDA exposure or 15, 30 or 60 min. following final media replacement. For determination of Ca^++-dependence, cells were incubated in HBSS^+ with no added Ca^++. When kainate (KA) was used as an agonist, 100 μM D-APV was routinely included to block secondary NMDA receptor activation. Catalase (100 U/ml) was always included when xanthine plus xanthine oxidase (X+XO) was used as a treatment to rule out the contribution of hydrogen peroxide.
(§1) Neurotoxicity studies: Neurotoxicity was determined by the measurement of LDH released in the supernatant media as previously described (Patel et al, Toxicol. Appl. Pharmacol. 115:124 (1991) and Neurotoxicology 14:35 (1992)). LDH was measured by the method of Vassault, Lactate dehydrogenase. In: Methods of Enzymatic Analysis, Bergmeyer HU (ed), Verlag Chemie, Weinheim, pp. 118-126 (1983). Additionally, cell death was confirmed with ethidium-1 homodimer (EthD-1). Briefly, the cells were washed with HBSS, loaded with 20 μM EthD-1 for 30 min,. rinsed and viewed through fluorescence optics. The number of dead cells labeled with EthD-1 were counted in 4-6 randomly selected fields, the numbers averaged to give an estimate of cell death and the experiment was repeated 3 times.

Cortical cells = assay: Cell death of cortical cells by EthD-1 staining; type: cell-based, rat; settings: concentration-response curves
Experimental: Tissue culture: Mixed neuronal and glial cultures were prepared from embryonic day-18 rat cerebral cortices (Sprague-Dawley, Zivic Miller). Briefly, the cerebral cortices were dissected and enzymatically dissociated by incubation in Ca^++-, Mg^++-free Hank's balanced salt solution (HBSS) supplemented with 10 mM HEPES and 0.25% trypsin for 20 min. at 37° C. The tissue was rinsed and dispersed into single cell suspension by gentle passage through a fire polished Pasteur pipette. The cell suspension was centrifuged and resuspended in Minimum Essential Media (MEM), containing Earle's salts supplemented with 3 g/L glucose, 5% horse serum and 5% fetal bovine serum (growth media). […]
as §1, with “In: Methods of Enzymatic Analysis, Bergmeyer HU (ed), Verlag Chemie, Weinheim, pp. 118-126 (1983). Additionally, cell death was confirmed with ethidium-1 homodimer (EthD-1).” left out

[3] = Peroxynitrite-induced oxidation of dihydrorhodamine 123; type: biochemical; settings: peroxynitrite 5 μM; 10 μM dihydrorhodamine 123; 10 min, 22° C.; read-out: concentration giving 50% inhibition of oxidation of dihydrorhodamine 123 to rhodamine 123
Experimental: Measurement of peroxynitrite-induced oxidation of dihydrorhodamine 123: The peroxynitrite-dependent oxidation of dihydrorhodamine 123 to rhodamine 123, was measured based on the principles of the method described by Kooy et al, Free Radical Biol. Med. 16:149 (1994). Briefly, peroxynitrite at 5 μM was added into phosphate-buffered saline containing 10 μM dihydrorhodamine 123, in the absence of presence of MnTBAP (3-100 μM). After a 10 min incubation at 22° C., the fluorescence of rhodamine 123 was measured using a Perkin-Elmer fluorimeter (Model LS50B: Perkin-Elmer, Norwalk, Conn.) at an excitation wavelength of 500 mn, emission wavelength of 536 nm (slit widths 2.5 and 3.0 nm, respectively).

[4] = system: Rat pulmonary epithelial cell cultures (L2); assay: Paraquat-induced injury of L2 cells, LDH release; type: cell-based; settings: 100 μM; Paraquat 2.5 mM, 48 hours

Mn(III) tetrakis (4-benzoic acid)porphyrin [MnTBAP]
paraquat-induced LDH release / injury [1]: decreases paraquat-induced LDH release in a dose-dependent manner
relaxations in vascular rings in response to authentic NO [2]: did not inhibit
PQ^++-, NMDA- and KA-mediated cell death (LDH release) (rat cortical cells; 200 μM MnTBAP, 18 hr): markedly inhibited
shift of concentration-response curve for NMDA (LDH) (rat cortical cells; 200 μM MnTBAP, 18 hr): complete protection at low concentrations of NMDA
reduction of LDH release (rat cortical cells; 200 μM added 30 min. after 15 min. 100 μM NMDA): 30%
reduction of LDH release (rat cortical cells; 200 μM added 60 min. after 15 min. 100 μM NMDA): 25%
reduction of LDH release / protective effect (rat cortical cells; added 15 min. after 15 min. 100 μM NMDA, 200 μM MnTBAP, 10 μM MK801): 38%
reduction of LDH release (rat cortical cells; condition "pre": 15 min. prior to and during 15 min. 100 μM NMDA, measured 18 hr. later): 25%
reduction of LDH release (rat cortical cells; condition "pre+post", 100 μM NMDA 15 min.): 51%
neuroprotective effects against PQ^++, NMDA and KA toxicities (Cortical cells): markedly increased neuroprotective effects in comparison to ZnTBAP
IC50 [3]: 30 µM
paraquat-induced LDH release [4]: decrease paraquat-induced LDH release
